# Measured values reported in US9556437B2, “FAT1 gene in cancer and inflammation” (DEPARTMENT OF BIOTECHNOLOGY (DBT), priority 2012, dated 2017).
# “Also recorded” adds a separate entry of the source.
# Key:
# Type in all cases: cell-based, human
# A172 cells [1] = experiment: Migration assay, modified Boyden chamber; details: A172siFAT1 vs siControl, 24 hrs assay, 72 hrs post-transfection, P<0.001
# Procedure: (§1) Migration and Invasion Assays: The modified Boyden chamber/matrigel assay was performed according to the manufacturer's directions (BD Biosciences, Bedford, Mass.). For in vitro migration assays, chambers with control inserts that lacked the matrigel coating were used. Transfections were carried out in U87MG and A172 cells and 48 hrs later 3×10^4 U87MG cells/well and 7×10^4 A172 cells/well were resuspended in serum-free DMEM and seeded in triplicate in matrigel-coated (1 mg/ml; BD Biosciences) and uncoated control inserts (8-μm pore-size, BD Bioscience, Bedford, Mass.). The remaining protocol was done as previously described.
# U87MG cells [2] = experiment: Migration assay, modified Boyden chamber; details: U87MGsiFAT1 vs siControl, 24 hrs assay, 72 hrs post-transfection, P<0.01
# Procedure: as §1
# U87MG cells [3] = experiment: Apoptosis by caspase3 Western blot and DAPI staining; details: 72 hrs of transfection
# A172 cells [4] = experiment: Invasion assay, matrigel; details: A172siFAT1 vs siControl, P<0.01
# Procedure: as §1
# U87MG cells [5] = experiment: Invasion assay, matrigel; details: U87MGsiFAT1 vs siControl, P<0.01
# Procedure: as §1
# COX-2 promoter = COX-2 promoter luciferase assay; details: U87MG, vs siControl+DMSO; SR11302 10 μM, 48 hrs
# Procedure: AP-1 and COX-2 Promoter Luciferase Assay: U87MG cells (40000 cells/well) were plated in 6-well plates in triplicate on day zero. On day 1, cells were transfected with siFAT1 and siControl. On day 2 cells were transiently transfected with 4×AP-1-luciferase reporter plasmids as described previously. Cells were transfected with 1 μg of AP-17× luciferase reporter plasmid, along with 50 ng of pRL-TK (Renilla luciferase) control plasmid using LIPOFECTAMINE2000 as the transfection reagent. After 48 hrs, the cells were lysed by 1× passive-lysis-buffer (Promega, Madison, Wis., USA) and assayed for luciferase activity as previously described. For COX-2 luciferase assay U87MG cells were transfected with siFAT1 and siControl on day 1 and after 4 hrs incubation were treated with 10 μM SR11302. On day2 cells were transiently transfected with COX-2 reporter plasmid and again treated with 10 μM SR11302. After 48 hrs, the cells were assayed for luciferase activity.
# phospho-Akt = experiment: Western blot phospho-Akt; details: U87MG cells after FAT1 knockdown
# Procedure: FIG. 9: FAT1 knockdown results in increased p-akt level in U87MG cell line; Akt is known to negatively regulate PDCD4 expression; therefore, the effect of FAT1 knockdown on the phosphorylation status of Akt in U87MG cells was checked by Western blot analysis using β-actin as a loading control.
# (§2) Western Blotting Analyses: Cells were lysed in triple detergent buffer containing protease and phosphatase inhibitors (Sigma Aldrich), lysates were quantified by BCA kit (Pierce, Thermo Fisher Scientific, Rockford, Ill. USA) and electrophoresed in 10% SDS-PAGE and electroblotted on nitrocellulose membrane (Millipore, Billerica, Mass., USA). Membrane was blocked with 5% bovine serum albumin (BSA) in 1×TBS at 4° C. for overnight. Primary and secondary antibody was diluted in 5% BSA and 0.1% tween-20 in 1×TBS. Blot was incubated in primary antibody overnight at 4° C. followed by secondary antibody incubation for 2 hrs at room temperature. Blot was developed by BCIP-NBT (Promega, Madison, Wis., USA) and captured using Alpha Imager EP software.
# IL1β = IL1β mRNA expression by q-PCR; details: U87MGsiFAT1 vs siControl
# Procedure: (§3) Cell Culture and siRNA Transfection: The human glioma cell lines U87MG, U373, A172, T98G, GOS3 and SW1088 were obtained from ATCC; Rockville, Md., cultured in DMEM (Sigma-Aldrich, Switzerland) supplemented with 10% (v/v) FCS (Sigma-Aldrich), 3.7 g/l sodium bicarbonate (Sigma-Aldrich), Ciprofloxacin 10 μg/ml and 5% CO2 at 37° C. For transfection, 2×10^5 cells were seeded per 25 cm^2 flask. After 24 hrs, cells were transfected with FAT1 siRNA and universal medium GC control siRNA (Invitrogen) according to the manufacturer's protocol with a final concentration of 20 nM of siRNA using LIPOFECTAMINE 2000 (Invitrogen) and Opti-Mem media (Invitrogen). After 4 hrs of siRNA transfection, the media was supplemented with DMEM containing 2×FCS. […] Photomicrographs of the cells were taken using an inverted phase contrast microscope (Nikon TMS, Phase contrast microscope, Japan). For simultaneous knockdown of FAT1 and PDCD4, siRNA from Dharmacon were used. Transfection was performed as earlier with 50 nM of FAT1 siRNA along with 50 nM of PDCD4 siRNA or 50 nM of control siRNA.
# (§4) cDNA Synthesis and Quantitative PCR: Total RNA was isolated from cells at appropriate time point (vide supra) using TRIzol reagent (Invitrogen), quantified using a Nanodrop ND-1000 spectrophotometer.
# PDCD4 = experiment: Western blot PDCD4 protein; details: U87MG, A172, U373MG and T98G, vs siControl
# Procedure: as §2
# COX-2 = experiment: Western blot COX-2 protein; details: U87MGsiFAT1 vs siControl
# Procedure: as §2
# IL6 = IL6 mRNA expression by q-PCR; details: U87MGsiFAT1 vs siControl
# Procedure: as §3, §4
substance,measurement,setting,value
"siFAT1: FAT1 specific siRNA (Invitrogen), FAT Stealth RNAi siRNA-I (HSS103567), used for further experiments (sense CCCAACACACCUGUGGUCAUGGUAA; antisense UUACCAUGACCACAGGUGUGUUGGG; Stealth modification, chemistry not fully specified; listed as Homo sapiens)",reduction in migration,A172 cells [1],> 3 fold
same,reduction in migration,U87MG cells [2],> 2 fold
same,DNA fragmentation (DAPI staining),U87MG cells [3],no DNA fragmentation; also recorded: No differences
same,cleaved caspase-3 (Western blot),U87MG cells [3],no cleaved caspase-3; also recorded: No differences
same,reduction in invasion,A172 cells [4],> 1.5 fold
same,reduction in invasion,U87MG cells [5],> 2 fold
same,decrease in COX-2 luciferase activity,COX-2 promoter,1.8 fold
same,phospho-Akt level,phospho-Akt,increase
same,reduction in IL1β mRNA expression,IL1β,~10 fold
same,PDCD4 protein level,PDCD4,increased
same,COX-2 protein expression,COX-2,Significant reduction; also recorded: decreased
same,reduction in IL6 mRNA expression,IL6,~10 fold
